According to article PMC3401626 (Chemmedchem, 2011):

What was measured:
[1] = molecular target: T1, Eis (Mycobacterium tuberculosis, UniProt P9WFK7); test: Eis inhibition, UV-Vis DTNB assay of aminoglycoside acetylation; type: biochemical; conditions: at least 3 trials
[2] = molecular target: AAC(6′)/APH(2″)-Ia (Staphylococcus aureus, UniProt P0A0C1); test: Inhibitors' selectivity: AAC; type: biochemical; conditions: inhibitor 200 to 0.2 μM; enzyme 0.25 μM
[3] = molecular target: T1, Eis; test: Mode of inhibition of Eis; type: biochemical; conditions: for Mode of inhibition against NEO: varying NEO 50-200 μM
[4] = cited from earlier work
[5] = molecular target: T2, AAC(3)-IV (Salmonella sp, UniProt P08988); test: Inhibitors' selectivity: AAC; type: biochemical, Escherichia coli; conditions: inhibitor 200 to 0.2 μM; enzyme 0.25 μM
T2 sequence (P08988 with tags, fused parts or gaps limits assumed): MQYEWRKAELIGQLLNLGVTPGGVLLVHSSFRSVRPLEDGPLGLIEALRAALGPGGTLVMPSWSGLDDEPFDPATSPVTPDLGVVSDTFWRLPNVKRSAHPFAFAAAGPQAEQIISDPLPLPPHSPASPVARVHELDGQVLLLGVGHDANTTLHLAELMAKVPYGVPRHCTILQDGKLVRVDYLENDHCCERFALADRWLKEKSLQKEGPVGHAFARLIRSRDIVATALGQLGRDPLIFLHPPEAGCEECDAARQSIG

[6] = molecular target: AAC(2′)-Ic (Mycobacterium tuberculosis, UniProt P9WQG9); test: Inhibitors' selectivity: AAC; type: biochemical, Mtb; conditions: inhibitor 200 to 0.2 μM
AAC(2′)-Ic, sequence (P9WQG9 whole entry): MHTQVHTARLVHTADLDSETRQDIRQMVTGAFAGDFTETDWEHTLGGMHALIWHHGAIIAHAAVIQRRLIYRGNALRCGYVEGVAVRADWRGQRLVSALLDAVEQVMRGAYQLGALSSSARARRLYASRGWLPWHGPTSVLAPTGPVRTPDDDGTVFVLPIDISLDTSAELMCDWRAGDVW

T1 sequence (P9WFK7 whole entry): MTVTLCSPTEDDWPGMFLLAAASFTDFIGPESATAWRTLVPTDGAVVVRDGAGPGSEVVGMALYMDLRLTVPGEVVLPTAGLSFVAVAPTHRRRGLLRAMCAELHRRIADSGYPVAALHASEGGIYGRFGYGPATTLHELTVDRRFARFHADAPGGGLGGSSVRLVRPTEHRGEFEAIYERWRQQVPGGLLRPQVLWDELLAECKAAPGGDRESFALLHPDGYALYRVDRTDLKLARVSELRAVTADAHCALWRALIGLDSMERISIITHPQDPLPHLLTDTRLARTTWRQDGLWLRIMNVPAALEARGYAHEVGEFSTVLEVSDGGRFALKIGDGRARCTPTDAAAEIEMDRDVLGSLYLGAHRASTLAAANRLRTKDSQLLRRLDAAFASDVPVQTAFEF
AAC(6′)/APH(2″)-Ia, sequence (P0A0C1 whole entry): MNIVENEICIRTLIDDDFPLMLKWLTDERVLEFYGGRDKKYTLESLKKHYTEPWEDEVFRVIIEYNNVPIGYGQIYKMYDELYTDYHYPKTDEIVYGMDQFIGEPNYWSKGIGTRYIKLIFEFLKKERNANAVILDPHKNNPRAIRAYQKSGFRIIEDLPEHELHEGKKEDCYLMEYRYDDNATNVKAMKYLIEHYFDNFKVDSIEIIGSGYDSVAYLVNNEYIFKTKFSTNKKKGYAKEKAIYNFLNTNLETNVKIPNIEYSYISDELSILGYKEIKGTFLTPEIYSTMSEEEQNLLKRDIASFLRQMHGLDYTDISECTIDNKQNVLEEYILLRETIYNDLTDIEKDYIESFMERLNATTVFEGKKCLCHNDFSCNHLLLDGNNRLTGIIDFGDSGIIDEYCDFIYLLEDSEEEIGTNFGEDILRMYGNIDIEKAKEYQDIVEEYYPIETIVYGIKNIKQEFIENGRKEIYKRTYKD

## [H]/N=C(\N/C(=N/[H])NCCCCCCNC(=N)NC(=N)Nc1ccc(Cl)cc1)Nc1ccc(Cl)cc1 [Compound 6, chlorhexidine]
[1]; Eis inhibition constants (IC50) using AMK, substrate AMK
  IC50: 321 ± 58 nM
[1]; Eis inhibition constants (IC50) using KAN, substrate KAN
  IC50: 666 ± 193 nM
[2]
  inhibition of AAC(6′)/APH(2″): no significant inhibition
[3]; substrate AMK, listed as chlorhexidine (6)
  Mode of inhibition against AMK: AG-competitive inhibitor
[3]; substrate KAN, listed as chlorhexidine (6)
  Mode of inhibition against KAN: AG-competitive inhibitor
[3]
  Mode of inhibition against NEO: competitive inhibitor
[3]; listed as chlorhexidine (6)
  Mode of inhibition against NEO: AG-competitive inhibitor
[4]
  toxic effects on pulmonary tissues: toxic effects on pulmonary tissues
[5]
  inhibition of AAC(3)-IV: no significant inhibition
[6]
  inhibition of AAC(2′)-Ic: no significant inhibition
